Results on 6 molecules are retold here after patent EP0758883B1, “FUSOGENIC LIPOSOMES AND METHODS OF MAKING AND USING SAME” (THE LIPOSOME COMPANY, INC., priority 1994, dated 1995).

The nature of data set [1]: TNS fluorescence titration for ionizable lipid pKa in liposomal bilayers. As to conditions: aminolipid incorporated into liposomes; for % Charged at pH 7.5: from TNS fluorescence titrations.
Data set [2] is described as follows: Lipid-mixing fusion assay (RET fluorescent probe dilution), EPC/DOPE/Chol liposomes. Conditions: for fusogenic capacity (fusion rate): 5 mole % of each aminolipid in EPC/DOPE/Chol (35:20:45) liposomes, Figure 9, in words. The protocol:
(§1) Fusion was monitored by the decrease in resonance energy transfer (RET) resulting from fluorescent probe dilution, as described by Struck et al. (1981). […] The external buffer was 20 mM HEPES (150 mM NaCl, pH 7.5). […] Labeled and unlabeled liposomes were mixed in a 1:3 ratio, and diluted to 0.2 mM total lipid. External buffer was exchanged for 300 mM sucrose, 1 mM citrate, pH 4.0, on Sephadex G-25 columns before diluting preparations to 10 mM lipid. For fusion assays, 20 µl of fluorescently labeled liposomes, and 60 µl unlabeled liposomes, were added to 3.92 ml of 20 mM HEPES, 150 mM NaCl, pH 7.5. After 5 min. of incubation at room temperature, a 3 ml aliquot was added to a cuvette, and the fluorescence was monitored over 5 minutes. Excitation and emission wavelengths were 465 and 535 nm, respectively, and an emission 530 nm cutoff filter was used. To dissipate the gradient and induce fusion, ammonium acetate was added to a final concentration of 100 mM at 30 seconds. The percent change in fluorescence (% F/ Fmax) was determined by assigning zero fluorescence (F0) to a trace with no ammonium acetate added and Fmax to a trace measured after adding 100 µl of 25 mM Triton X-100, so that: % ( F/ Fmax ) = 100 x ((F-F0 )/(Fmax -F0 )) [formula]
To study the effect of aminolipid structure on the fusion of EPC/Chol/DOPE liposomes (35:20:45) liposomes were prepared with 5 mole % of the indicated aminolipid (AL-1-AL-6), an internal pH 4.0, 300 mM sodium citrate buffer, and an external 20 mM HEPES buffer (150 mM NaCl, pH 7.5). Fusion assays were carried out as described above.
(§2) Membrane fusion was monitored by a loss in RET between the fluorescently labeled lipids NBD-PE and Rh-PE. When liposomes containing both of these labels fuse with unlabeled liposomes, the resulting dilution of the fluorescent probes gives Increased fluorescence for NBD-PE.

Data set [3] can be described thus: Lipid-mixing fusion assay (RET fluorescent probe dilution), EPC/Chol liposomes. As to conditions: plateau after dissipation of the pH gradient with 100 mM ammonium acetate, complete mixing would give 80%. The protocol:
as §1, with “To dissipate the gradient and induce fusion, ammonium acetate was added to a final concentration of 100 mM at 30 seconds.” left out, “[formula] […]” for “[formula]”
as §2

A short description of data set [4]: Lipid asymmetry (transbilayer distribution) by TNS fluorescence. It is filed as physicochemical. Conditions: 10 mole % in EPC/Chol (55:45), internal pH 4, external pH 7.5; after four minutes.

On to `CCCCCCCCCC(=O)OCC(CN(C)C)OC(=O)CCCCCCCCC` (racemic) [AL-6, ±-1,2-didecanoyl-1-N,N-dimethylamino propane], for which the “% Charged at pH 7.5” value in data set [1] is on record as 17%. The “fusogenic capacity (fusion rate)” value in data set [2] is “only limited mixing”.
Turning to `CCCCCCCC/C=C\CCCCCCCC(=O)OCC(CN(C)C)OC(C)=O` (racemic) [AL-3], in data set [1], the “fraction of neutral species at pH 7.5” value is given as 16% and the “% Charged at pH 7.5” value stood at 16%. In addition, the “fusogenic capacity (fusion rate)” value in data set [2] is recorded as “substantially greater fusion rate”.
Consider `CCCCCCCC/C=C\CCCCCCCC(=O)OCC(CN(C)C)OC(=O)CCCCCCCCC` (racemic) [AL-5], for which the “% Charged at pH 7.5” value in data set [1] is 14%. Besides, the “fusogenic capacity (fusion rate)” value in data set [2] is “further increases in the fusion rate”.
Take `CCCCCCCC/C=C\CCCCCCCC(=O)OCC(CN(C)C)OC(=O)CCC` (racemic) [AL-4]: in data set [1], the “% Charged at pH 7.5” value is 13%. Moreover, the “fusogenic capacity (fusion rate)” value in data set [2] is on record as “further increases in the fusion rate”.
Regarding `CCCCCCCC/C=C\CCCCCCCC(=O)OCC(O)CN(C)C` (racemic) [AL-2, ±-1-oleoyl-2-hydroxy-3-N,N-dimethylamino propane], the “% Charged at pH 7.5” value in data set [1] was 54%. In data set [2], the “fusogenic capacity (fusion rate)” value is recorded as “little Increase in liposome fusion”.
Regarding `CCCCCCCC/C=C\CCCCCCCC(=O)OCC(CN(C)C)OC(=O)CCCCCCC/C=C\CCCCCCCC` (racemic) [AL-1, 1-N,N-dimethylamino dioleoyl propane], the “fraction of neutral species at pH 7.5” value in data set [1] is 11%. Besides, the “% Charged at pH 7.5” value in data set [1] came to 11%. Besides, the ΔF/ΔFmax is listed as approximately 3% in data set [3] (10 mole % AL-1 in EPC/Chol (55:45)); approximately 3% in data set [3] (20 mole % AL-1 in EPC/Chol (55:45)); approximately 10% in data set [2] (10 mole % AL-1 in EPC/DOPE/Chol (30:25:45), over 5 minutes after dissipation of the pH gradient); “over 5%” in data set [2] (10 mole % AL-1 in EPC/DOPE/Chol (35:20:45), after 5 minutes); “greater than 10%” in data set [2] (about 5 mole % AL-1 in EPC/DOPE/Chol (35:20:45), over the first 5 minutes after dissipation of the pH gradient). In addition, the “aminolipid moved to the inner monolayer” value in data set [4] is on record as “virtually all”.
